From patent publication US20120165304A1, “6,7,8,9-Tetrahydro-5H-1,4,7,10a-tetraaza-cyclohept[f]indene derivatives, pharmaceutical compositions containing these compounds, their use and processes for preparing them” (BOEHRINGER INGELHEIM INTERNATIONAL GMBH, priority 2008, published 2012)

Target: human 5-HT2C receptor (Homo sapiens, UniProt P28335, I156V/I160V/N158S)
Assay: cell-based

Sequence of human 5-HT2C receptor (P28335 33-458 I156V/N158S/I160V limits assumed): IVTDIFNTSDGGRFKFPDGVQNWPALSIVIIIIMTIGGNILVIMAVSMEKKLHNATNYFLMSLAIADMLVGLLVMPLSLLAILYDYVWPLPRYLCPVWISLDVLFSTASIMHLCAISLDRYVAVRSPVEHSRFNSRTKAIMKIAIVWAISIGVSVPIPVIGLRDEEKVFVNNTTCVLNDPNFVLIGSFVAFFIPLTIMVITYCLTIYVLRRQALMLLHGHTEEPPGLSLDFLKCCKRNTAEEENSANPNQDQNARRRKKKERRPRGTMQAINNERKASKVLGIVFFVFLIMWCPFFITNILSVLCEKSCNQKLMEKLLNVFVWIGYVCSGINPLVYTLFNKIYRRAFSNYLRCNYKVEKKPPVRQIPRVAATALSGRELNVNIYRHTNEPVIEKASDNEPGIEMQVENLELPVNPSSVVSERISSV

Structure (SMILES) | EC50 [nM]
O=C(C1CN(c2c3c(nc4ccnn24)CCNCC3)C1)N1CCC2(CCCCC2)CC1 [Example 31.35] | 50
O=C(C1CN(c2c3c(nc4ccnn24)CCNCC3)C1)N1CCC2(CCC2)C1 [Example 31.56] | 43
CC(C)(C)N1CCC2(CCN(c3c4c(nc5ccnn35)CCNCC4)CC2)C1=O [Example 1.65] | 4900
O=C(C1CN(c2c3c(nc4ccnn24)CCNCC3)C1)N1CCC(N2CCOCC2)CC1 [Example 37.19] | 5
Cc1ccc(C2CCN(C(=O)C3CN(c4c5c(nc6ccnn46)CCNCC5)C3)CC2)cc1 [Example 31.144] | 66
CN(Cc1ccc(F)cc1)C(=O)C1CN(c2c3c(nc4ccnn24)CCNCC3)C1 [Example 31.96] | 26
c1cc2nc3c(c(N4CCCC4)n2n1)CCNCC3 [Example 7.1] | 764
O=C(C1CN(c2c3c(nc4ccnn24)CCNCC3)C1)N1CCN2CCCC2C1 (centres unmarked) [Example 37.9] | 3
Fc1cc(F)c2nc(C3CN(c4c5c(nc6ccnn46)CCNCC5)C3)[nH]c2c1 [Example 34.24] | 136
CN(C)CCCN(C)C(=O)C1CN(c2c3c(nc4ccnn24)CCN(C)CC3)C1 [Example 36.55] | 87
COc1ccccc1N(C)C(=O)C1CN(c2c3c(nc4ccnn24)CCNCC3)C1 [Example 31.38] | 790
CN1CCc2nc3ccnn3c(N3CC(C(=O)NC4CCC(C)(C)CC4)C3)c2CC1 [Example 36.39] | 911
CCCCN1CCCN(C(=O)C2CN(c3c4c(nc5ccnn35)CCN(C)CC4)C2)CC1 [Example 36.36] | 256
CN(CCc1cccc(C(F)(F)F)c1)C(=O)C1CN(c2c3c(nc4ccnn24)CCNCC3)C1 [Example 31.89] | 133
CN1CCC(CNC(=O)C2CN(c3c4c(nc5ccnn35)CCNCC4)C2)CC1 [Example 37.89] | 19
O=C(C1CN(c2c3c(nc4ccnn24)CCNCC3)C1)N1CCCC(F)C1 (centres unmarked) [Example 31.193] | 64
O=C(C1CN(c2c3c(nc4ccnn24)CCNCC3)C1)N1CCC(CCc2ccc(F)cc2)CC1 [Example 31.105] | 111
O=C(NC1CCCC1)C1CN(c2c3c(nc4ccnn24)CCNCC3)C1 [Example 31.18] | 458
c1cc2nc3c(c(N4CCCCCC4)n2n1)CCNCC3 [Example 7.5] | 592
CC#CCN(CC(C)C)C(=O)C1CN(c2c3c(nc4ccnn24)CCNCC3)C1 [Example 31.104] | 215
Fc1cccc(OC2CN(c3c4c(nc5ccnn35)CCNCC4)C2)c1 [Example 1.9] | 26
CCN1CCCN(C(=O)C2CN(c3c4c(nc5ccnn35)CCN(C)CC4)C2)CC1 [Example 36.50] | 81
Cc1cnn2c(N3CC(C(=O)N(C)Cc4ccc(OC(F)F)cc4)C3)c3c(nc12)CCNCC3 [Example 31.249] | 16
O=C(C1CN(c2c3c(nc4ccnn24)CCNCC3)C1)N1CCCCC1 [Example 31.15] | 342
O=C(C1CN(c2c3c(nc4ccnn24)CCNCC3)C1)N1CCCC2(CCc3ccccc32)C1 (centres unmarked) [Example 31.173] | 440
c1cnc2ccc(OC3CN(c4c5c(nc6ccnn46)CCNCC5)C3)cc2c1 [Example 35.43] | 207
Clc1ccccc1OCC1CN(c2c3c(nc4ccnn24)CCNCC3)C1 [Example 15.6] | 5

Structure (SMILES) | EC50 [nM]
CNC(=O)C1CN(c2c3c(nc4ccnn24)CCNCC3)C1 [Example 9.1] | 818
COc1ccc(OC2CN(c3c4c(nc5ccnn35)CCNCC4)C2)cc1 [Example 1.10] | 96
CC1CNCCc2c1nc1ccnn1c2N1CC(C(=O)N2CCC(C)(C)C2)C1 (centres unmarked) [Example 42, (3,3-Dimethyl-pyrrolidin-1-yl)-[1-(5-methyl-6,7,8,9-tetrahydro-5H-1,4,7,10a-tetraaza-cyclohept[f]inden-10-yl)-azetidin-3-yl]-methanone] | 31
CN1CCc2nc3ccnn3c(N3CC(C(=O)N4CCN(C)C(=O)C4)C3)c2CC1 [Example 36.19] | 257
Fc1ccc(OCC2CN(c3c4c(nc5ccnn35)CCNCC4)C2)cc1Cl [Example 15.11] | 20
CN1CCc2nc3ccnn3c(N3CC(C(=O)NC4CCCC(C(F)(F)F)C4)C3)c2CC1 (centres unmarked) [Example 36.45] | 87
COc1cc(Br)ccc1OC1CN(c2c3c(nc4ccnn24)CCNCC3)C1 [Example 35.17] | 88
CC(C)(C)CNC(=O)C1CN(c2c3c(nc4ccnn24)CCNCC3)C1 [Example 37.76] | 65
C[C@@H]1CN(C(=O)C2CN(c3c4c(nc5ccnn35)CCNCC4)C2)C[C@H](C)O1 [Example 31.42] | 37
O=C(NCCC1CCCC1)C1CN(c2c3c(nc4ccnn24)CCNCC3)C1 [Example 37.62] | 10
Cc1cnn2c(N3CC(C(=O)N4CCC(C(F)(F)F)CC4)C3)c3c(nc12)CCNCC3 [Example 31.237] | 11
Cc1cc(C#N)cc(C)c1OC1CN(c2c3c(nc4ccnn24)CCNCC3)C1 [Example 35.15] | 20
O=C(N[C@H]1C[C@@H]1c1ccccc1)C1CN(c2c3c(nc4ccnn24)CCNCC3)C1 [Example 31.28] | 314
O=C(C1CN(c2c3c(nc4c(Br)cnn24)CCNCC3)C1)N1CCC2(CCC2)C1 [Example 31.133] | 60
O=C(C1CN(c2c3c(nc4ccnn24)CCNCC3)C1)N1CCC(F)(F)CC1 [Example 31.203] | 67
CC1CN(C(=O)C2CN(c3c4c(nc5ccnn35)CCN(C)CC4)C2)CCO1 (centres unmarked) [Example 36.11] | 138
CC(=O)N(C)c1ccc(OC2CN(c3c4c(nc5ccnn35)CCNCC4)C2)cc1 [Example 35.28] | 189
O=C(C1CN(c2c3c(nc4ccnn24)CCNCC3)C1)N1CCN(C2CCCCC2)CC1 [Example 37.38] | 3
Cc1cccc2[nH]c(C3CN(c4c5c(nc6ccnn46)CCNCC5)C3)nc12 [Example 34.5] | 246
FC(F)(F)Oc1ccccc1OC1CN(c2c3c(nc4ccnn24)CCNCC3)C1 [Example 35.18] | 636
Clc1ccccc1OC1CCN(c2c3c(nc4ccnn24)CCNCC3)CC1 [Example 1.55] | 2780
Cc1cccc2c1CCN2C(=O)C1CN(c2c3c(nc4ccnn24)CCNCC3)C1 [Example 31.175] | 64
CCCC1CCN(C(=O)C2CN(c3c4c(nc5ccnn35)CCNCC4)C2)CC1 [Example 31.69] | 36
CC1CC(C)CC(N(C)C(=O)C2CN(c3c4c(nc5ccnn35)CCNCC4)C2)C1 (centres unmarked) [Example 31.216] | 847
O=C(C1CN(c2c3c(nc4ccnn24)CCNCC3)C1)N1CCC(c2ccc(C(F)(F)F)cc2)CC1 [Example 31.109] | 83
Cc1cccc(CN(C)C(=O)C2CN(c3c4c(nc5ccnn35)CCNCC4)C2)c1 [Example 31.49] | 51
O=C(CC1CN(c2c3c(nc4ccnn24)CCNCC3)C1)N1CCc2cc(F)ccc21 [Example 33.2] | 20

Structure (SMILES) | EC50 [nM]
COc1cccc(OC2CN(c3c4c(nc5ccnn35)CCNCC4)C2)c1 [Example 35.47] | 66
CC1(C)CCN(C(=O)C2CN(c3c4c(nc5c(Br)cnn35)CCNCC4)C2)C1 [Example 31.135] | 46
Fc1ccc(Cl)c(OCC2CN(c3c4c(nc5ccnn35)CCNCC4)C2)c1 [Example 15.15] | 2
Fc1cc(Cl)ccc1OC1CN(c2c3c(nc4ccnn24)CCNCC3)C1 [Example 35.22] | 82
COc1ccc(OC2CN(c3c4c(nc5ccnn35)CCNCC4)C2)c(Cl)c1 [Example 35.19] | 87
Brc1cccc(OC2CN(c3c4c(nc5ccnn35)CCNCC4)C2)c1 [Example 35.14] | 477
COc1ccc(CCN(C)C(=O)C2CN(c3c4c(nc5ccnn35)CCNCC4)C2)cc1 [Example 31.27] | 274
Cc1ccc(CN(C)C(=O)C2CN(c3c4c(nc5ccnn35)CCNCC4)C2)cc1 [Example 31.50] | 51
O=C(N1CCOCC1)C1(c2ccccc2)CCN(c2c3c(nc4ccnn24)CCNCC3)CC1 [Example 1.54] | 1640
O=C(C1CN(c2c3c(nc4ccnn24)CCNCC3)C1)N1CCc2ccccc2CC1 [Example 31.33] | 196
COc1ccc(CC2CN(c3c4c(nc5ccnn35)CCNCC4)C2)cc1 [Example 18.1] | 119
CNC1CCN(C(=O)C2CN(c3c4c(nc5ccnn35)CCNCC4)C2)C1 (centres unmarked) [Example 37.26] | 2
O=C(NCCc1ccccc1)C1CN(c2c3c(nc4ccnn24)CCNCC3)C1 [Example 31.21] | 727
CC1CNCCc2nc3ccnn3c(N3CCC3)c21 (centres unmarked) [Example 5, 10-Azetidin-1-yl-9-methyl-6,7,8,9-tetrahydro-5H-1,4,7,10a-tetraaza-cyclohepta[f]indene] | 570
CC(CC1CCCCC1)NC(=O)C1CN(c2c3c(nc4ccnn24)CCNCC3)C1 (centres unmarked) [Example 37.108] | 72
CCC(C)CNC(=O)C1CN(c2c3c(nc4ccnn24)CCNCC3)C1 (centres unmarked) [Example 37.86] | 41
Cn1c(C2CN(c3c4c(nc5ccnn35)CCNCC4)C2)nc2ccccc21 [Example 34.1] | 53
CN(C)C(=O)C1CN(c2c3c(nc4ccnn24)CCNCC3)C1 [Example 9, 1-(6,7,8,9-Tetrahydro-5H-1,4,7,10a-tetraaza-cyclohepta[f]inden-10-yl)-azetidine-3-carboxylic acid dimethylamide] | 71
CN(Cc1ccc(C#N)cc1)C(=O)C1CN(c2c3c(nc4c(Br)cnn24)CCNCC3)C1 [Example 31.139] | 16
CC(C)CN(Cc1ccc(F)cc1)C(=O)C1CN(c2c3c(nc4ccnn24)CCNCC3)C1 [Example 31.198] | 1810
CN(CCc1ccc2ccccc2c1)C(=O)C1CN(c2c3c(nc4ccnn24)CCNCC3)C1 [Example 31.71] | 366
C#CCCN(CC(C)C)C(=O)C1CN(c2c3c(nc4ccnn24)CCNCC3)C1 [Example 31.106] | 184
OCC1CN(c2c3c(nc4ccnn24)CCNCC3)C1 [Example 1.5] | 193
Cc1cccc(C2CCN(C(=O)C3CN(c4c5c(nc6ccnn46)CCNCC5)C3)CC2)c1 [Example 31.167] | 101
O=C(C1CN(c2c3c(nc4ccnn24)CCNCC3)C1)N1CCc2ccc(C(F)(F)F)cc2C1 [Example 31.107] | 52
CN1CCc2nc3ccnn3c(N3CC(C(=O)N4CCC(F)(F)C4)C3)c2CC1 [Example 36.30] | 117
